Measured values as given in ChEMBL document CHEMBL4706522, “Automated design and optimization of multitarget schizophrenia drug candidates by deep learning” (Eur J Med Chem, 2020).

Columns and labels:
[1] = biological target: 5-hydroxytryptamine receptor 2A (Homo sapiens, UniProt P28223); test: Antagonist activity at 5-HT2A receptor (unknown origin) assessed as decrease in intracellular calcium flux preincubated with calcium followed by compound challenge and measured after 10 mins by FLIPR method; format: functional, cell-based
5-hydroxytryptamine receptor 2A, sequence (P28223 whole entry): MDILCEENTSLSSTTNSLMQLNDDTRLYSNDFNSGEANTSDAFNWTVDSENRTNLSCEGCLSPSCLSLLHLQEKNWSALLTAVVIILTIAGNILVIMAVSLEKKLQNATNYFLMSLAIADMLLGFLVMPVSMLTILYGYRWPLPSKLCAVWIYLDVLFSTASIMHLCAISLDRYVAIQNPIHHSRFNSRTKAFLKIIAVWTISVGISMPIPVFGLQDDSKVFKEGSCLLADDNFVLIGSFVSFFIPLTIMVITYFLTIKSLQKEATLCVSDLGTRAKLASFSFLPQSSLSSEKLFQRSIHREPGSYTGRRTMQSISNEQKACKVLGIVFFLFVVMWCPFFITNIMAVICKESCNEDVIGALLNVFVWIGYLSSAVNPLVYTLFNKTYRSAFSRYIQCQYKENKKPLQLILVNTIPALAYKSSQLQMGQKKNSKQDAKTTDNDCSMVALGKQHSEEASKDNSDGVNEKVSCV

Mus musculus = test: Antipsychotic activity in ICR mouse assessed as reduction of PCP induced hyperactivity at 3 mg/kg, ig pretreated with compound for 30 mins followed by PCP challenge for 10 mins and measured after 60 mins; format: functional; details: po, 1.667 h, time 100 min
[2] = biological target: T1, 5-hydroxytryptamine receptor 1A (Homo sapiens, UniProt P08908); test: Agonist activity at 5-HT1A receptor (unknown origin) preincubated for 60 mins followed by addition of Eu-cAMP and measured after 60 mins by plate reader method; format: functional
T1 sequence (P08908 whole entry): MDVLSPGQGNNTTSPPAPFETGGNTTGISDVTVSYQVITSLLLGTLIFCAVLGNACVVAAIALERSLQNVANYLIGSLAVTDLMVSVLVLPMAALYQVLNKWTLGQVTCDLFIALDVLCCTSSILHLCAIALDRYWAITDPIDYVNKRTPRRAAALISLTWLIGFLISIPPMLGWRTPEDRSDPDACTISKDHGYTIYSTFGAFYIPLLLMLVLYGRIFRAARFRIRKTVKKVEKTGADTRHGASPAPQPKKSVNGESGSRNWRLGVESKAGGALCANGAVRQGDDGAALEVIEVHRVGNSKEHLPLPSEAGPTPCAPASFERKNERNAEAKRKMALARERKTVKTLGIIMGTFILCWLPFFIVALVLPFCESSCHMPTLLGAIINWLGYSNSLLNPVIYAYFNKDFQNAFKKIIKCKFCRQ

D(2) dopamine receptor = D(2) dopamine receptor (Homo sapiens, UniProt P14416); test: Antagonist activity at D2 receptor (unknown origin) preincubated for 60 mins followed by addition of Eu-cAMP and measured after 60 mins by plate reader method; format: functional
D(2) dopamine receptor, sequence (P14416 whole entry): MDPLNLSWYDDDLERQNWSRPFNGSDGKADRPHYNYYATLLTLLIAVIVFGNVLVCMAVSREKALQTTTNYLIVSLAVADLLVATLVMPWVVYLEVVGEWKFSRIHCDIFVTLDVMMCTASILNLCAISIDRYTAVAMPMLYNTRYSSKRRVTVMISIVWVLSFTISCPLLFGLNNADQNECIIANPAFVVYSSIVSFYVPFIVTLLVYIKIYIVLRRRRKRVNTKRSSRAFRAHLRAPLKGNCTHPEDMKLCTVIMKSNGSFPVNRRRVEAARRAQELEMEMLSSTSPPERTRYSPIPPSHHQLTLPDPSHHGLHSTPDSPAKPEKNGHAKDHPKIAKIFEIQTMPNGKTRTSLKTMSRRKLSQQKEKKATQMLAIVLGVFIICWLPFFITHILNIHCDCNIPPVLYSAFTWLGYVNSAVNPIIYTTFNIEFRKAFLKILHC

[3] = Toxicity in ICR mouse assessed as induction of catalepsy at 1 mg/kg, po; format: organism-based; details: in vivo
[4] = Toxicity in ICR mouse assessed as induction of sedation by measuring spontaneous locomotor activity at 0.3 to 3 mg/kg, po measured for 30 mins following drug administration; format: organism-based; details: in vivo, 0.5 h, dose 0.3-3 mg/kg

## O=C1COc2ccccc2N1CCCCN1CCN(c2cccc3sccc23)CC1
[1]; read-out: IC50
  IC50: 1.64 nM
Mus musculus
  inhibition in vivo at 3 mg/kg: 39%
[2]; read-out: EC50
  EC50: 0.51 nM

## COc1ccc2ncc(=O)n(CCCCN3CCN(c4cccc5sccc45)CC3)c2c1
[1]; read-out: pIC50 (converted)
  IC50: 20.9 nM
[2]; read-out: pEC50 (converted)
  EC50: 2.69 nM

## Nc1ccc2c(c1)N(CCCCN1CCN(c3cccc4sccc34)CC1)S(=O)(=O)CC2
[1]; read-out: pIC50 (converted)
  IC50: 2.82 nM
Mus musculus
  inhibition in vivo at 3 mg/kg: 48%
[2]; read-out: pEC50 (converted)
  EC50: 0.794 nM
D(2) dopamine receptor
  IC50: 67.6 nM

## O=S1(=O)CCc2ccc(O)cc2N1CCCCN1CCN(c2cccc3sccc23)CC1
[1]; read-out: pIC50 (converted)
  IC50: 18.6 nM
Mus musculus
  inhibition in vivo at 3 mg/kg: 13%
[2]; read-out: pEC50 (converted)
  EC50: 1.12 nM
D(2) dopamine receptor
  IC50: 20 nM

## O=C1NCC(=O)N(CCCCN2CCN(c3cccc4sccc34)CC2)c2cc(F)ccc21
[1]; read-out: pIC50 (converted)
  IC50: 24.5 nM
Mus musculus
  inhibition in vivo at 3 mg/kg: 43%
[2]; read-out: pEC50 (converted)
  EC50: 4.07 nM
D(2) dopamine receptor
  IC50: 34.7 nM

## CN1CC(=O)N(CCCCN2CCN(c3cccc4sccc34)CC2)c2ccccc2C1=O
[1]; read-out: pIC50 (converted)
  IC50: 42.7 nM
Mus musculus
  inhibition in vivo at 3 mg/kg: 15%
[2]; read-out: pEC50 (converted)
  EC50: 11 nM
D(2) dopamine receptor
  IC50: 123 nM

## O=c1[nH]c(=O)n(CCCCN2CCN(c3cccc4sccc34)CC2)c2ccccc12
[3]
  Activity: Non-Toxic
[4]
  Activity: Non-Toxic
[1]; read-out: pIC50 (converted)
  IC50: 129 nM
[2]; read-out: pEC50 (converted)
  EC50: 3.39 nM

## O=C1CCc2ccc(OCCCCN3CCN(c4cccc(Cl)c4Cl)CC3)cc2N1 [ARIPIPRAZOLE]
Mus musculus
  inhibition in vivo at 3 mg/kg: 54%
